Assay results: publication PMC5728534 (PLoS ONE, 2017)
Numbering of substitutions follows the chain as printed. Entries after “also recorded” stand apart in the source; their conditions may differ.

Experiments:
OCT1 = details: literature data; cited from earlier work
[1] = cited from earlier work
OCT1*12 (Ser29Leu) = target: T1, OCT1*12 (Ser29Leu) (Homo sapiens, UniProt O15245, L160F/S29L); test: Ranitidine uptake in HEK293 cells overexpressing OCT1*12; type: in vitro ADME; details: 1 μM and 10 μM ranitidine, 2 min
T1 construct: expressed in transfected cells; host or cells: HEK293 T-REx (Flp-In)
T1 sequence (O15245 1-554 S29L/L160F): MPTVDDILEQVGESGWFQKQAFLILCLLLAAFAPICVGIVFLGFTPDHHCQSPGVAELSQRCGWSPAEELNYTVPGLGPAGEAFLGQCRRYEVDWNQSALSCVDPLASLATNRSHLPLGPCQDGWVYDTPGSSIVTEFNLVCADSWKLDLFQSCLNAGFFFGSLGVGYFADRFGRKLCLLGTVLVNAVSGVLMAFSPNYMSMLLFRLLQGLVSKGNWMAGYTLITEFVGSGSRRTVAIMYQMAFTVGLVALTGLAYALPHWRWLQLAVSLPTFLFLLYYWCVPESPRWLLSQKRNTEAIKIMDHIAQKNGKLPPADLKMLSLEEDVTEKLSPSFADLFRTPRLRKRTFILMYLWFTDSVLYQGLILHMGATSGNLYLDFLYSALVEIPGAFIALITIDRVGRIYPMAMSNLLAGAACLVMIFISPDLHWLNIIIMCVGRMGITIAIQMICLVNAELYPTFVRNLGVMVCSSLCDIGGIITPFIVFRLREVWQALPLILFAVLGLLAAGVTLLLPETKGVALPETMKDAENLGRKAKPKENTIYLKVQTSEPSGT
Text: (§1) HEK293 or CHO cells overexpressing the human OCT1 alleles *1A (characterized by the amino acid substitution Met408Val), *1B, *1C (Phe160Leu), *1D (Pro341Leu/Met408Val), *2 (Met420del), *3 (Arg61Cys), *4 (Gly401Ser), *5 (Gly465Arg/Met420del), *6 (Cys88Arg/Met420del), *7 (Ser14Phe), *8A (Arg488Met), *8B (Arg488Met/Met408Val), *9 (Pro117Leu), *10 (Ser189Leu), *11 (Ile449Thr), *12 (Ser29Leu), or *13 (Thr245Met), the human OCT2 reference and variant alleles (Ala270Ser), human OCT3, and the control cells (transfected with the empty pcDNA5 vector) were generated by targeted chromosomal integration using the Flp-In™ System (Life Technologies, Darmstadt, Germany).
(§2) Six hundred thousand HEK293 or CHO cells were plated per well in 12-well plates (pre-coated with poly-D-lysine) and were grown for 48 hours to reach confluence. Cells were kept at 37°C and 5% CO2 in DMEM (HEK293) or RPMI (CHO), supplemented with 10% FCS, 100 U/ml penicillin, and 100 μg/ml streptomycin. Uptake experiments were performed at pH 7.4 using HBSS supplemented with 10 mM HEPES buffer (herein referred to as HBSS+). […]
(§3) For all transport measurements, the intracellular amount of substrate was normalized to the total amount of protein of the sample as measured using the bicinchoninic acid assay [49].
(§4) For quantification of intracellular substrates, the cell debris were removed by centrifugation at 17,000 x g for 10 min. […]

OCT2 = target: T2, OCT2 (Homo sapiens, UniProt O15244, S270A); test: Ranitidine uptake in HEK293 cells overexpressing OCT2 reference (Ala270); type: in vitro ADME; details: 1 μM ranitidine, 2 min
T2 construct: expressed in transfected cells; host or cells: HEK293 T-REx (Flp-In)
T2 sequence (O15244 1-555 S270A): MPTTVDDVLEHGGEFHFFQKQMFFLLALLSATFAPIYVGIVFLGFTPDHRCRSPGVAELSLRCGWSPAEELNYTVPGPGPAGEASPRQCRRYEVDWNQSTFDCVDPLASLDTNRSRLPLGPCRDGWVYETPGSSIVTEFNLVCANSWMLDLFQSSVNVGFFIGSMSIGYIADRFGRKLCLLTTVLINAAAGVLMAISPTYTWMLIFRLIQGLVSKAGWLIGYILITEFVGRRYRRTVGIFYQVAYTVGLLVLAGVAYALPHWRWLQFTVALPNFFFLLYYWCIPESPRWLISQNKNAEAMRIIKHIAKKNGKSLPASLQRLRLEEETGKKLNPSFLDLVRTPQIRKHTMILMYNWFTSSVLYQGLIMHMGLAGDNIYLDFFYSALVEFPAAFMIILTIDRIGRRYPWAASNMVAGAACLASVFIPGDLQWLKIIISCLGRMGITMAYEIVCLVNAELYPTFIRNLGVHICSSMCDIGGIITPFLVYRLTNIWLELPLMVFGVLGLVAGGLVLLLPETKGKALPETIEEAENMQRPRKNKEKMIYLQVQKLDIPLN
Text: as §1, §2, §3, §4

OCT1*3 (Arg61Cys) = target: T3, OCT1*3 (Arg61Cys) (Homo sapiens, UniProt O15245, L160F/R61C)
T3 sequence (O15245 1-554 R61C/L160F): T1 sequence (O15245 1-554 S29L/L160F) with L29S, R61C
Text: as §1, §2, §3, §4

OCT1*1B = target: T4, OCT1*1B (Homo sapiens, UniProt O15245, L160F); test: in vitro; details: HEK293 cells overexpressing OCT1*1B, pH 7.4, Km (± SEM), OCT1*1B reference allele, 10-600 μM ranitidine, control-cell uptake subtracted
T4 sequence (O15245 1-554 L160F): T1 sequence (O15245 1-554 S29L/L160F) with L29S
Text: as §1
Six hundred thousand HEK293 or CHO cells were plated per well in 12-well plates (pre-coated with poly-D-lysine) and were grown for 48 hours to reach confluence. Cells were kept at 37°C and 5% CO2 in DMEM (HEK293) or RPMI (CHO), supplemented with 10% FCS, 100 U/ml penicillin, and 100 μg/ml streptomycin. Uptake experiments were performed at pH 7.4 using HBSS supplemented with 10 mM HEPES buffer (herein referred to as HBSS+). Cells were washed once with 1 ml pre-warmed HBSS+ buffer (37°C). […] Cells were washed twice with 2 ml ice-cold HBSS+ and lysed in 500 μl lysis buffer.
as §3
For quantification of intracellular substrates, the cell debris were removed by centrifugation at 17,000 x g for 10 min. Four-hundred μl of the supernatant was evaporated to dryness under nitrogen flow at 40°C. The residue was reconstituted in 200 μl 0.1% formic acid and 10 μl were injected into the LC-MS/MS. For the LC-MS/MS analysis an API 4000™ system tandem mass spectrometer (AB SCIEX, Darmstadt, Germany) was used. Samples were separated using a Brownlee SPP RP-Amide Column (4.6x100 mm, 2.7 μm; PerkinElmer), with a SecurityGuard C18, 4x2 mm pre-column (Phenomenex, Aschaffenburg, Germany).
Nonlinear regression to the Michaelis-Menten equation was performed to determine Km and vmax using GraphPad Prism version 6 (GraphPad Software Inc., La Jolla, CA, USA). Nonlinear regression to the Hill equation v = vmin+(vmax-vmin)/1+([I]/IC50)^-Hillslope was performed to determine IC50 using SigmaPlot version 12.0 (Systat Software, San Jose, California, USA).

[2] = set-up: method as in ref 56 = [56]; 56 Pharma ® A. Fachinformation Ranitidin 150–1 A Pharma ® , Ranitidin 300–1 A Pharma ® : Rote Liste ®; 2013 [updated June 2013; cited 2016 21.10.2016].; details: cited from earlier work

CNC(=C[N+](=O)[O-])NCCSCc1ccc(CN(C)C)o1 [ranitidine, Ranitidine]
Km (OCT1): 70 ± 9 µM
portion eliminated unchanged via renal excretion ([1]; after oral administration): approximately half
oral bioavailability [1]: 50–60%
time to maximal plasma concentrations after administration [1]: two to three
[I]1, mean unbound ranitidine steady state total Cmax ([1]; highest clinical dose (300 mg)): 2.2 µM
bioavailability in hepatic dysfunction ([1]; increase from 50%): 70%
volume of distribution ([1]; no reference given): ~1.4 L/kg
ranitidine transport activity (OCT1*12 (Ser29Leu)): completely lacked ranitidine uptake; also recorded: complete lack of ranitidine transport activity
ranitidine uptake, OCT2-overexpressing compared to control cells (OCT2): 3.3 fold
decrease of vmax compared to the reference allele (OCT1*3 (Arg61Cys)): more than 50%
Km at 2 min (OCT1*1B): 62.9 µM
dosages exceeding the single dose not associated with a higher prevalence of adverse reactions [2]: more than 20 fold
